In general, melting point refers to the temperature of the solid-liquid transition.

The compound `COc1ccc(-c2cc3nc(N(C)C)c4ccccc4c3nn2)cc1` yielded a melting point of 160 to 162 °C.

On to `O=c1c(Cl)coc2cc(OCCCCl)ccc12`, for which the melting point is 101 to 103 °C.

For `COC(=O)COc1ccc(C(=O)NC(=O)Nc2ccc(C(N)=S)cc2)cc1`, the melting point lay in the range of 215 to 218 °C.

In the case of `COc1ccc2ccc(N3C(=O)c4ccccc4C3OCC(=O)N3CCC(O)CC3)nc2n1` (stereo not given), the melting point was determined as 167 °C.

Consider `Nc1ncnc2c1c(-c1ccc(Oc3ccccc3)cc1)cn2CCN1C(=O)c2ccccc2C1=O`, for which the melting point is 111 to 112 °C.

In the case of `CC(=NNC(=O)C1CCCCC1)c1ccncc1`, the melting point came to 195 °C.

In turn, `CCOC(=O)Cn1c(C(=O)OCC)cc(=O)c2cc(O)c(=O)ccc21` yielded a melting point of 186 to 188 °C.

Consider `COc1ccc2c(c1C)OC(C(=O)O)C2` (stereo not given), for which the melting point fell in the range of 142 to 143 °C.

For the compound `CCO[C@H]1Cc2ccccc2[C@H]1Nc1nc(CC)c(-c2ccc(OC)cc2OC)nc1CC`, the melting point was in the range of 120 to 121 °C.

In turn, `CCCCNS(=O)(=O)c1cc(C(=O)OCC)cc(NCc2ccccc2)c1Oc1ccccc1` yielded a melting point of 149 to 150 °C.

Consider `O=[N+]([O-])c1ccc2c(c1)N(c1nnn[nH]1)CC2`, for which the melting point was in the range of 262 to 270 °C.

`O=C1CCC(N2Cc3c(OCc4nc5cc(CN6CCOCC6)ccc5s4)cccc3C2=O)C(=O)N1` (stereo not given): the melting point fell in the range of 228 to 230 °C.

Take `CCOC(=O)c1c(C)c(C(=O)O)c(C)n1C`: the melting point fell in the range of 197 to 198 °C.

For `N#CCOc1cc(-c2ccccc2)[nH]n1`, the melting point turned out to be 143 °C.

`COc1ccc2c(c1)Sc1cc(OC(C)=O)c(OC)cc1N2` came in with a melting point of 172 to 174 °C.

Consider `Cc1cc(C2=NOC(c3cc(Cl)cc(Cl)c3)(C(F)(F)F)C2)ccc1C(=O)Nc1ncc(Br)cn1` (stereo not given), for which the melting point fell in the range of 178 to 181 °C.

`Cc1cc(F)ccc1-c1nc(OCCCS(C)(=O)=O)nc2c1ccc(=O)n2-c1c(F)cccc1F`: the melting point is 160 to 162 °C.

The compound `COC(=O)c1c(-c2ccc(Cl)cc2)ccnc1Br` displayed a melting point of 73 to 76 °C.

Compound `CN(C)Cc1ccc2cc(-c3nnc(CSCCOc4ccccc4)o3)ccc2c1` showed a melting point of 95 to 96 °C.

Take `COc1cc(Nc2c(C#N)cnc3cc(/C=C/CCCCN4CCOCC4)c(OC)cc23)c(Cl)cc1Cl`: the melting point lay in the range of 99 to 100 °C.

In turn, `Cc1nc(N2CCN(C(=O)c3ccc(F)cc3)C2=O)sc1C(=O)NCc1ccccc1` yielded a melting point of 130 to 132 °C.

`CC(C)n1nc(-c2c(-c3ccccc3)nn3ccc(C(=O)NCc4cccnc4)cc23)ccc1=O`: the melting point was 192 to 193 °C.

Turning to `Cc1cc(-c2ccc(C(F)(F)F)cc2)cc(-c2cccc(-c3cccc(S(N)(=O)=O)c3)n2)n1`, the melting point came out at 250 °C.

With `CC12CCC3(CC1CCC1C2CCC2(C)C1CC(O)C2N=[N+]=[N-])OCCO3` (stereo not given), the melting point was in the range of 112 to 116 °C.

Turning to `FC(F)(F)c1ccc(-c2ccc(Cl)nn2)cc1`, the melting point was 186 to 188 °C.

`COC(=O)CCCc1cc2cc(C(F)(F)F)ccc2n1S(=O)(=O)c1ccc2ncsc2c1`: the melting point lay in the range of 117 to 121 °C.

Turning to `O=C(NCC(=O)c1c(O)cc(O)cc1OCc1ccccc1)OCc1ccccc1`, the melting point fell in the range of 129 to 131 °C.

The compound `CCOC(=O)c1ccnc(-c2nc(=O)c3ccccc3s2)c1` registered a melting point of 236 to 237 °C.

Consider `O=C1CN=C(c2ccccc2F)c2ccccc2N1`, for which the melting point is 181 to 182 °C.

In turn, `CC(=O)NC[C@H]1CN(c2ccc3c(c2)C[C@@H](C)N3C=O)C(=O)O1` returned a melting point of 158 to 159 °C.

`Cc1cccc(Oc2ccc(Cl)cc2C(=O)O)c1` had a melting point of 124 to 125 °C.

Turning to `COc1ccc2c3c(ccc2c1)OC(=O)CC3`, the melting point lay within 122 to 123 °C.

As to `CN1CCN(Cc2c(O)ccc3c2OCO3)CC1`, the melting point fell in the range of 85 to 87 °C.

Take `COC(=O)C(=CNC1CC1)C(=O)c1cc(F)c(Cl)cc1OC`: the melting point fell in the range of 128 to 132 °C.

Compound `CCCCCCCCCCCCSCN(O)CSCCCCCCCCCCCC` showed a melting point of 63 to 65 °C.

Turning to `Cc1cc(-n2ccnc2)c2cccc(OCc3c(Cl)ccc(S(=O)(=O)N4CCCC[C@H]4C(=O)O)c3Cl)c2n1`, the melting point amounted to 208 °C.

Compound `O=C1N=C(N2CCCC2)SC1Cc1cccc(-c2ccc(O)c(C34CC5CC(CC(C5)C3)C4)c2)c1` (stereo not given) registered a melting point of 153 to 154 °C.

As for `Cc1ccc2c(=O)n(S(=O)(=O)c3ccc(Cl)cc3)c(=O)[nH]c2c1C`, the melting point lay in the range of 241 to 245 °C.

`Fc1ccc(-c2cncc(CN3CC=C(c4ccccc4)CC3)c2)cc1` came in with a melting point of 128 to 129 °C.

Consider `Cn1c(C(F)(F)F)ccc(-c2cc3c(cc2F)OCC(=O)N3)c1=O`, for which the melting point was in the range of 216 to 218 °C.

As to `Fc1ccc2[nH]c3c(c2c1)CN(CCCc1cccnc1)CC3`, the melting point lay in the range of 215 to 218 °C.

`CC[C@H](C)[C@H](NC(=O)OCc1ccccc1)C(=O)N[C@@H](CO)Cc1c[nH]c2ccccc12` registered a melting point of 198 to 199 °C.

Regarding `COc1ccc(-c2nc3cc(Cl)c(Cl)cc3[nH]2)cc1[N+](=O)[O-]`, the melting point worked out at 250 °C.

`CCOCCCNC(=O)c1ccc(S(=O)(=O)NC(=O)c2ccc(C(=O)NCC(=O)O)nc2)cc1` yielded a melting point of 109 °C.

`CCCCOc1ccc(C(=O)CCCCC(=O)O)cc1` gave a melting point of 95 °C.

With `CCOP(=O)(Cc1ccc(C(=O)N(Cc2ccccc2)c2ccc(Cl)cc2)cc1)OCC`, the melting point fell in the range of 81 to 82 °C.

As for `CCOC(=O)N1CCC2(CC1)N=C(N)c1c(F)cccc1O2`, the melting point was 114 to 116 °C.

With `CCc1nc2cc(/C=C/C(=O)NO)ccc2c(=O)n1CCc1ccc(OC)cc1`, the melting point was in the range of 215 to 217 °C.

With `CN(C(=O)NCCc1ccc(F)cc1)c1cccc(-c2ccc(CCC(=O)O)cc2)c1`, the melting point amounted to 146 °C.

With `CC1CCCCN1c1nc(N)nc(-c2cc(Cl)ccc2Cl)n1` (stereo not given), the melting point fell in the range of 136 to 137 °C.

Compound `O=Cc1ccc2c(c1)C1(c3ccccc3-2)c2ccccc2-c2ccc(C=O)cc21` had a melting point of more than 300 °C.

With `CC(=O)Nc1cc(OS(=O)(=O)c2ccc(C)cc2)nc(=N)n1OC(C)=O`, the melting point lay within 196 to 200 °C.

Compound `CN(C(=O)C(C#N)C(=O)c1nn(-c2ccccc2)c2c1COc1ccccc1-2)c1ccccc1` (stereo not given) returned a melting point of 183 to 184 °C.

Regarding `NCC1CCN(CC(=O)Nc2cccc3c2C(=O)c2c-3n[nH]c2-c2ccc(N3CCNCC3)cc2)CC1`, the melting point is 239 °C.

For `COCc1cnc2c(NC(=O)c3c(Cl)cccc3Cl)cccc2c1COC`, the melting point was 160 to 161 °C.

As for `CCOC(=O)c1cnc2n(c1=O)C(C)CCC2=NN` (stereo not given), the melting point lay in the range of 199 to 200 °C.

With `COc1c(N2CC[C@@H](C(C)(C)N)C2)c(F)cc2c(=O)c(C(=O)O)cn(C3CC3)c12`, the melting point was 225 to 227 °C.

For `NC(=O)c1nc(-c2cccc(O)c2)nc2c1[nH]c(=O)n2[C@H]1CC[C@H](N)CC1`, the melting point was 299 to 301 °C.

For the compound `CC(C)=NOCc1nc2c(N)nc(C)c(C)c2n1CCCCNC(=O)C(C)C`, the melting point is 180 to 181 °C.

`CC(C)(C)c1cccc(S(=O)(=O)n2c(C(O)c3ccc(C(=O)O)s3)cc3cc(C(F)(F)F)ccc32)c1` (stereo not given) had a melting point of 90 °C.

With `CN(C)c1ccc2[nH]c3c([N+](=O)[O-])ccc(Cl)c3c(=O)c2c1`, the melting point is more than 300 °C.

The compound `COc1c(Br)cc(Br)c(OC)c1C(=O)O` gave a melting point of 108 to 110 °C.

The compound `COc1cc(C(=O)O)cc(Cl)c1Cl` returned a melting point of 218 to 219 °C.

As for `Cc1nc2ncnn2c(O)c1CCCOCC(C)(C)C`, the melting point was in the range of 155 to 159 °C.

On to `CCOC(=O)c1ccc(COCc2csc3nc(C(=O)NCc4cccc(OC)c4)[nH]c(=O)c23)cc1`, for which the melting point was found to be 173 °C.

The compound `CCCN(CCC)c1c(CC)nn2c(-c3ccc(OC)cc3C)cccc12` returned a melting point of 76 to 79 °C.

In turn, `O=C(Nc1ccc(Cl)cc1)NC1CCN(C(=O)Cc2c[nH]cn2)CC1` yielded a melting point of 174 to 176 °C.

The compound `CN1CCN(C(=O)CCCCCNC(=O)c2cc(OCc3ccccc3)ccc2OCc2ccccc2)CC1` came in with a melting point of 78 to 79 °C.

The compound `CCCS(=O)c1sc(C(N)=O)c2c1-c1c(cnn1CC(F)(F)F)CC2` (stereo not given) displayed a melting point of 165 to 166 °C.

Compound `COc1ccc(C(=O)C=C2CCCN2)cc1` yielded a melting point of 134 to 135 °C.

Regarding `COc1cc(COc2nn(Cc3ccccc3)cc2C(=O)O)ccc1OCc1nc(-c2ccco2)oc1C`, the melting point is 167 to 168 °C.

Compound `N#Cc1ccc(OCC(F)(F)C(F)(F)C(F)(F)C(F)(F)COc2ccc([N+](=O)[O-])cc2[N+](=O)[O-])cc1` showed a melting point of 89 to 90.6 °C.

The compound `CN(C)CCNS(=O)(=O)c1cc(NC(=O)c2cnn3c(C(F)F)cc(-c4ccc(C(F)(F)F)cc4)nc23)c(Cl)s1` gave a melting point of 162 °C.

`CCCCCCCNC(=O)Nc1ccccc1CNCc1cc(C(C)(C)C)c(O)c(C(C)(C)C)c1`: the melting point fell in the range of 135 to 138 °C.

For `CCCc1c(OCc2c(CCCCc3cccnc3)ccc(C(N)=O)c2OCC)ccc(C(C)=O)c1O`, the melting point was 107 to 109 °C.

As for `O=C(O)CCCCC=Cc1cn(-c2cccnc2)c2ccccc12`, the melting point fell in the range of 124 to 125 °C.

Regarding `NS(=O)(=O)c1ccc(-c2nn3c(-c4ccc(F)cc4)coc3c2-c2ccc(F)cc2)cc1`, the melting point lay within 235 to 237 °C.

As for `CC(C)(C)OC(=O)N[C@H]1CC[C@H](CCN2CCN(c3cccc4c3CCC4)CC2)CC1`, the melting point was 115 to 118 °C.

`Cc1cc(NCCNCC(O)COc2ccccc2)c2ccccc2n1` (stereo not given): the melting point fell in the range of 151 to 152 °C.

As to `NC(=O)N1C(=O)C(C(=O)c2ccccc2)c2ncc(Cl)cc21` (stereo not given), the melting point came to 260 °C.

`COc1ccc(CNc2c(C)c(C)c3oc(C)c(-c4ccc(F)cc4)c3c2C)cc1` registered a melting point of 100 to 102 °C.

Compound `CCOC(=O)c1[nH]c2cc3[nH]c(C)c(C(=O)OCC)c3c(C)c2c1C` gave a melting point of 216 °C.

Regarding `CCCCCCCCCCCCCCCc1ccc(-c2nc(-c3ccccc3Cl)nn2C)cc1`, the melting point is 62 to 65 °C.

For the compound `NC(=O)Cc1c(-c2ccccc2)nn(-c2ccccc2)c1-c1ccccc1`, the melting point is 123 to 124 °C.

As to `CNc1nc(N)ncc1-c1cccc(Cl)c1Cl`, the melting point fell in the range of 233 to 237 °C.

Values taken from a melting point compilation (Tetko et al.; mined from patent text by program, amines drawn as free bases though some values may be those of a salt).
